This note sets out measurements from ChEMBL document CHEMBL3044674, “Design and synthesis of positional isomers of 1-alkyl-2-trifluoromethyl-5 or 6-substituted benzimidazoles and their antimicrobial activity” (2013).

Holding throughout (type): functional
One assay has as its system Saccharomyces cerevisiae. Kind of assay: Antifungal activity against Saccharomyces cerevisiae MTCC 36 after 24 hr by paper disk method. The note with it: MTCC 36, 24 h.
Another assay relates to Rhizopus arrhizus. The assay can be described thus: Antifungal activity against Rhizopus oryzae MTCC 262 after 24 hr by paper disk method. The note with it: MTCC 262, 24 h.
The next assay relates to Escherichia coli. The assay can be described thus: Antibacterial activity against Escherichia coli NCIM 2068 after 18 to 20 hr by plate method.
Another assay concerns Candida albicans. The assay can be described thus: Antifungal activity against Candida albicans MTCC 227 after 24 hr by paper disk method. The note with it: MTCC 227, 24 h.
Another assay has as its system Pseudomonas aeruginosa. The assay can be described thus: Antibacterial activity against Pseudomonas aeruginosa NCIM 2957 after 18 to 20 hr by plate method.
In the next assay the test system is Staphylococcus aureus. The assay can be described thus: Antibacterial activity against Staphylococcus aureus NCIM 2079 after 18 to 20 hr by plate method.
The subject of another assay is Aspergillus niger. Kind of assay: Antifungal activity against Aspergillus niger MTCC 1344 after 24 hr by paper disk method. The note with it: MTCC 1344, 24 h.
The test system of a further assay is Bacillus subtilis. The assay can be described thus: Antibacterial activity against Bacillus subtilis NCIM 2921 after 18 to 20 hr by plate method.

≈ marks a conversion by molar mass, not a printed value.

What is called MIC is the smallest concentration in the dilution series that meets the test's criterion for growth inhibition.

With `N#CCn1c(C(F)(F)F)nc2ccc([N+](=O)[O-])cc21`, the MIC against Saccharomyces cerevisiae came to 900 µg/mL (≈ 3330 µM); in the assay on Rhizopus arrhizus it was 800 µg/mL (≈ 2960 µM).
As to `CCOC(=O)Cn1c(C(F)(F)F)nc2ccc([N+](=O)[O-])cc21`, the Activity result in the assay with Escherichia coli, in the assay with Pseudomonas aeruginosa, with Staphylococcus aureus and in the assay with Bacillus subtilis was “Dose-dependent effect” throughout. The MIC came to 800 µg/mL (≈ 2520 µM) in the assay on Escherichia coli; 450 µg/mL (≈ 1420 µM) against Candida albicans; 850 µg/mL (≈ 2680 µM) against Pseudomonas aeruginosa; 900 µg/mL (≈ 2840 µM) in the assay on Staphylococcus aureus; 600 µg/mL (≈ 1890 µM) in the assay on Saccharomyces cerevisiae; 500 µg/mL (≈ 1580 µM) against Aspergillus niger. In addition, the figures for the MIC against Rhizopus arrhizus and against Bacillus subtilis were 700 µg/mL (≈ 2210 µM) and 950 µg/mL (≈ 2990 µM), respectively.
With `O=[N+]([O-])c1ccc2nc(C(F)(F)C(F)(F)F)n(CCCCCl)c2c1`, the MIC was 800 µg/mL (≈ 2150 µM) with Candida albicans, 750 µg/mL (≈ 2020 µM) against Saccharomyces cerevisiae, 700 µg/mL (≈ 1880 µM) in the assay with Aspergillus niger and 800 µg/mL (≈ 2150 µM) against Rhizopus arrhizus.
In the case of `CCOC(=O)Cn1c(C(F)(F)C(F)(F)F)nc2ccc([N+](=O)[O-])cc21`, the Activity result in the assay on Escherichia coli, with Pseudomonas aeruginosa, with Staphylococcus aureus and in the assay on Bacillus subtilis was “Dose-dependent effect” throughout. Also, the MIC is 900 µg/mL (≈ 2450 µM) against Candida albicans, 800 µg/mL (≈ 2180 µM) in the assay with Staphylococcus aureus, 900 µg/mL (≈ 2450 µM) against Saccharomyces cerevisiae and 800 µg/mL (≈ 2180 µM) in the assay with Aspergillus niger.
In the case of `CCOC(=O)Cn1c(C(F)(F)C(F)(F)F)nc2cc(C(=O)c3ccccc3)ccc21`, the Activity result in the assay with Escherichia coli, in the assay on Pseudomonas aeruginosa, in the assay on Staphylococcus aureus and with Bacillus subtilis was “Dose-dependent effect” throughout. In addition, the MIC against Escherichia coli turned out to be 650 µg/mL (≈ 1520 µM); with Candida albicans, 700 µg/mL (≈ 1640 µM); with Pseudomonas aeruginosa it was 700 µg/mL (≈ 1640 µM); with Staphylococcus aureus, 700 µg/mL (≈ 1640 µM); in the assay with Saccharomyces cerevisiae, 800 µg/mL (≈ 1880 µM); against Aspergillus niger, 1000 µg/mL (≈ 2350 µM). The minimum inhibitory concentration (MIC) was 800 µg/mL (≈ 1880 µM) against Rhizopus arrhizus and 900 µg/mL (≈ 2110 µM) against Bacillus subtilis.
Consider `O=[N+]([O-])c1ccc2nc(C(F)(F)F)n(CCCCCl)c2c1`, for which the Activity entry in the assay with Escherichia coli, in the assay with Pseudomonas aeruginosa, in the assay with Staphylococcus aureus and with Bacillus subtilis was “Dose-dependent effect” in each case. The MIC is 600 µg/mL (≈ 1870 µM) against Candida albicans; 800 µg/mL (≈ 2490 µM) against Staphylococcus aureus; 700 µg/mL (≈ 2180 µM) with Saccharomyces cerevisiae; 650 µg/mL (≈ 2020 µM) with Aspergillus niger; 400 µg/mL (≈ 1240 µM) against Rhizopus arrhizus; 700 µg/mL (≈ 2180 µM) against Bacillus subtilis.
As to `C#CCn1c(C(F)(F)F)nc2ccc([N+](=O)[O-])cc21`, the MIC against Candida albicans came out at 600 µg/mL (≈ 2230 µM); with Saccharomyces cerevisiae it was 700 µg/mL (≈ 2600 µM); with Aspergillus niger, 650 µg/mL (≈ 2410 µM); in the assay on Rhizopus arrhizus, 700 µg/mL (≈ 2600 µM).
For the compound `CCOC(=O)Cn1c(C(F)(F)F)nc2cc(C(=O)c3ccccc3)ccc21`, the MIC was 500 µg/mL (≈ 1330 µM) against Candida albicans, 600 µg/mL (≈ 1590 µM) against Saccharomyces cerevisiae, 800 µg/mL (≈ 2130 µM) against Aspergillus niger and 450 µg/mL (≈ 1200 µM) against Rhizopus arrhizus.
For `O=[N+]([O-])c1ccc2nc(C(F)(F)F)n(CCCCl)c2c1`, the Activity result in the assay on Escherichia coli, in the assay on Pseudomonas aeruginosa, in the assay on Staphylococcus aureus and in the assay with Bacillus subtilis was “Dose-dependent effect” each time. In addition, the MIC with Escherichia coli was 400 µg/mL (≈ 1300 µM); with Candida albicans, 400 µg/mL (≈ 1300 µM); in the assay on Pseudomonas aeruginosa it was 450 µg/mL (≈ 1460 µM); against Staphylococcus aureus, 350 µg/mL (≈ 1140 µM); in the assay with Saccharomyces cerevisiae it was 500 µg/mL (≈ 1630 µM); against Aspergillus niger it was 350 µg/mL (≈ 1140 µM). Also, the MIC in the assay on Rhizopus arrhizus and against Bacillus subtilis was 300 µg/mL (≈ 975 µM) throughout.
For `CCOC(=O)Cn1c(C(F)(F)C(F)(F)F)nc2cc([N+](=O)[O-])ccc21`, the Activity result in the assay on Escherichia coli, in the assay on Pseudomonas aeruginosa, in the assay on Staphylococcus aureus and with Bacillus subtilis was “Dose-dependent effect” each time. In addition, the MIC in the assay on Escherichia coli came out at 900 µg/mL (≈ 2450 µM); against Candida albicans, 800 µg/mL (≈ 2180 µM); against Pseudomonas aeruginosa, 800 µg/mL (≈ 2180 µM); with Saccharomyces cerevisiae, 900 µg/mL (≈ 2450 µM); with Aspergillus niger it was 850 µg/mL (≈ 2310 µM); in the assay on Rhizopus arrhizus, 950 µg/mL (≈ 2590 µM).
Turning to `C#CCn1c(C(F)(F)F)nc2cc([N+](=O)[O-])ccc21`, the MIC with Candida albicans amounted to 700 µg/mL (≈ 2600 µM); in the assay with Saccharomyces cerevisiae, 750 µg/mL (≈ 2790 µM); against Aspergillus niger, 600 µg/mL (≈ 2230 µM); against Rhizopus arrhizus, 700 µg/mL (≈ 2600 µM).
As to `CCn1c(C(F)(F)F)nc2cc([N+](=O)[O-])ccc21`, the MIC with Candida albicans came out at 700 µg/mL (≈ 2700 µM); against Saccharomyces cerevisiae it was 850 µg/mL (≈ 3280 µM); in the assay with Aspergillus niger, 750 µg/mL (≈ 2890 µM); against Rhizopus arrhizus, 700 µg/mL (≈ 2700 µM).
In the case of `O=[N+]([O-])c1ccc2c(c1)nc(C(F)(F)C(F)(F)F)n2CCCCCl`, the MIC amounted to 700 µg/mL (≈ 1880 µM) in the assay with Candida albicans, 750 µg/mL (≈ 2020 µM) in the assay on Saccharomyces cerevisiae, 650 µg/mL (≈ 1750 µM) with Aspergillus niger and 700 µg/mL (≈ 1880 µM) against Rhizopus arrhizus.
Consider `CCOC(=O)Cn1c(C(F)(F)C(F)(F)F)nc2ccc(C(=O)c3ccccc3)cc21`, for which the Activity entry in the assay with Escherichia coli, in the assay on Pseudomonas aeruginosa, in the assay on Staphylococcus aureus and in the assay with Bacillus subtilis was “Dose-dependent effect” in each case. In addition, the MIC with Escherichia coli worked out at 600 µg/mL (≈ 1410 µM); in the assay with Candida albicans it was 700 µg/mL (≈ 1640 µM); against Pseudomonas aeruginosa, 900 µg/mL (≈ 2110 µM); with Staphylococcus aureus, 900 µg/mL (≈ 2110 µM); in the assay with Saccharomyces cerevisiae, 700 µg/mL (≈ 1640 µM); in the assay on Aspergillus niger, 900 µg/mL (≈ 2110 µM). Moreover, the MIC in the assay with Rhizopus arrhizus and in the assay on Bacillus subtilis was 850 µg/mL (≈ 1990 µM) in each case.
On to `O=[N+]([O-])c1ccc2c(c1)nc(C(F)(F)F)n2CCCCCl`, for which the Activity result in the assay on Escherichia coli, in the assay on Pseudomonas aeruginosa, in the assay with Staphylococcus aureus and in the assay with Bacillus subtilis was “Dose-dependent effect” each time. In addition, the MIC against Escherichia coli came to 600 µg/mL (≈ 1870 µM); against Candida albicans, 500 µg/mL (≈ 1550 µM); with Pseudomonas aeruginosa it was 800 µg/mL (≈ 2490 µM); in the assay on Staphylococcus aureus, 800 µg/mL (≈ 2490 µM); against Saccharomyces cerevisiae, 800 µg/mL (≈ 2490 µM); in the assay with Aspergillus niger it was 450 µg/mL (≈ 1400 µM). Also, the MIC against Rhizopus arrhizus stood at 500 µg/mL (≈ 1550 µM); against Bacillus subtilis it was 750 µg/mL (≈ 2330 µM).
In the case of `CCOC(=O)Cn1c(C(F)(F)F)nc2cc([N+](=O)[O-])ccc21`, the Activity result in the assay with Escherichia coli, with Pseudomonas aeruginosa, with Staphylococcus aureus and in the assay with Bacillus subtilis was “Dose-dependent effect” in each case. In addition, the MIC against Escherichia coli was determined as 700 µg/mL (≈ 2210 µM); in the assay with Candida albicans, 400 µg/mL (≈ 1260 µM); against Pseudomonas aeruginosa it was 900 µg/mL (≈ 2840 µM); against Staphylococcus aureus, 800 µg/mL (≈ 2520 µM); against Saccharomyces cerevisiae, 600 µg/mL (≈ 1890 µM); against Aspergillus niger it was 550 µg/mL (≈ 1730 µM). The MIC amounted to 600 µg/mL (≈ 1890 µM) in the assay with Rhizopus arrhizus and 800 µg/mL (≈ 2520 µM) in the assay on Bacillus subtilis.
As to `CCOC(=O)Cn1c(C(F)(F)F)nc2ccc(C(=O)c3ccccc3)cc21`, the minimum inhibitory concentration (MIC) in the assay on Candida albicans was determined as 400 µg/mL (≈ 1060 µM); in the assay on Saccharomyces cerevisiae it was 500 µg/mL (≈ 1330 µM); in the assay with Aspergillus niger, 700 µg/mL (≈ 1860 µM); with Rhizopus arrhizus, 400 µg/mL (≈ 1060 µM).
`O=[N+]([O-])c1ccc2c(c1)nc(C(F)(F)F)n2CCCCl`: the Activity entry in the assay with Escherichia coli, in the assay with Pseudomonas aeruginosa, with Staphylococcus aureus and with Bacillus subtilis was “Dose-dependent effect” throughout. In addition, the MIC against Escherichia coli was determined as 200 µg/mL (≈ 650 µM); with Candida albicans, 300 µg/mL (≈ 975 µM); against Pseudomonas aeruginosa, 400 µg/mL (≈ 1300 µM); against Staphylococcus aureus, 300 µg/mL (≈ 975 µM); in the assay with Saccharomyces cerevisiae, 400 µg/mL (≈ 1300 µM); with Aspergillus niger, 300 µg/mL (≈ 975 µM). Moreover, the MIC with Rhizopus arrhizus was determined as 200 µg/mL (≈ 650 µM); against Bacillus subtilis it was 350 µg/mL (≈ 1140 µM).
With `CCn1c(C(F)(F)F)nc2ccc([N+](=O)[O-])cc21`, the minimum inhibitory concentration (MIC) stood at 900 µg/mL (≈ 3470 µM) in the assay on Candida albicans, 800 µg/mL (≈ 3090 µM) in the assay with Saccharomyces cerevisiae, 800 µg/mL (≈ 3090 µM) against Aspergillus niger and 850 µg/mL (≈ 3280 µM) in the assay with Rhizopus arrhizus.
